For one assay, the target named is ROCK-II (1-543) (UniProt Q62868). Briefly: Enzymatic Rho kinase assay (Kinase-Glo, S6-peptide phosphorylation). In kind it is biochemical. The conditions noted are these: 20 μM ATP, 20 μM S6-peptide, 50 min at RT. The protocol:
Enzymatic Rho Kinase (ROCK I and ROCK II) Assays.
The assay is based on ability of Rhok2 to phosphorylate a specific peptide sequence derived from its substrate—ribosomal protein S6 (amino acid residues 229-239). Rhok2 uses ATP as a donor of phosphate for the phosphorylation of the substrate, which leads to the depletion of ATP in the reaction mix. An assay kit (“Kinase-Glo”, Promega) was used to quantify enzyme activity. Using this kit, residual amounts of ATP are measured by a secondary enzymatic reaction, through which luciferase utilizes the remaining ATP to produce luminescence. Luminescent signal is directly proportional to ATP concentration and inversely proportional to Rhok2 activity.
This dose response assay was conducted in 1536 well plate format. Each concentration was tested nominally in triplicate. Protocol Summary: A 5 μL mixture of a 20 μM S6-peptide (LCB-[…]-NH2) and 20 μM ATP in Kinase buffer (50 mM Hepes pH 7.3, 10 mM MgCl2, 0.1% BSA, and 2 mM DTT) was added to the well of a plate. 20 nL of 90% DMSO/10% water containing the compound(s) to be tested (or no compound for control wells) was added. The reaction was initiated by addition of 5 μL of 8 nM ROCK-II (1-543) in Kinase buffer. […] The plate was read after 10 min incubation time at RT on the Viewlux in luminescence mode.

A further assay has as its system A7r5 cells. Kind of assay: Myosin light chain double phosphorylation assay (ppMLC cell assay). Format: cell-based. The conditions noted are these: inhibitor 1 h, 10 μM LPA for 10 min. The protocol:
Myosin Light Chain Double Phosphorylation Assays (ppMLC Cell Assay).
A7r5 cells were plated at 5000 cells/well in a 96 well Packard View Plate (Perkin Elmer) in DMEM +10% FBS. After attachment overnight, cells were serum starved for 4 h and treated with inhibitor in 0.25% DMSO final concentration for 1 h at 37° C. Cells were then treated with 10 μM lysophosphatitic acid (LPA) for 10 min. Following treatment, cells were immediately fixed with 4% paraformaldehyde for 30 minutes. After a brief wash in 0.1 M glycine, cells were permeablized in 0.2% Triton X for 10 minutes. Cells were then washed once in PBS and blocked in Li-COR blocking buffer (Li-COR Biosciences) for 1 h at 25 C. Cells were probed for either phosphorylated myosin light chain 20 (55 ng/mL), total myosin light chain (525 ng/mL) or anti-bovine α-tubulin (1 μg/mL), and incubated overnight at 4° C. Following three washes, cells were probed with goat-anti-rabbit or goat-anti-mouse IR800 (2 μg/mL in LI-COR block +0.025% Tween) for 1 h at 25° C. Nuclei were stained with TO-PRO-3 iodide (642/661) (1:4000) for 20 min, washed twice in PBS/0.05% Tween and read with an Odyssey Infrared Imaging System (LI-COR Biosciences).

Another assay relates to N2a cells. Kind of assay: Neurite length assay (N2a cell assay). Format: cell-based. The conditions noted are these: Mus musculus, compound 1 h, neurite retraction induced by 5 uM LPA. The protocol: Neurite Length Assay (N2a, Cell Assay).
N2a cells are maintained in DMEM/FBS at 37 C and 5% CO2. For the experiment the cells were plated on a poly-D-lysine coated 96-well tissue culture plate. After attachment, cell differentiation was induced for 2 days by addition of 10 uM retinoic acid. Cells were treated for 1 h with a dilution of compounds in 0.3% DMSO final concentration before neurite retraction was induced by 5 uM LPA. Cells were stained for tubulin and nuclei and images were acquired on a INCell 1000 workstation. Images were analyzed using the developer toolbox and neurite length was quantitated.

As a reminder, the IC50 is the concentration needed to halve the response being measured. Read a high IC50 as a need for much substance. Regarding `CN(C)CCOc1cc(-c2cn[nH]c2)c(F)cc1NC(=O)[C@H](N)c1ccc(F)cc1` [Example 26, (R)-2-amino-N-(2-(2-(dimethylamino)ethoxy)-5-fluoro-4-(1H-pyrazol-4-yl)phenyl)-2-(4-fluorophenyl)acetamide], the IC50 on ROCK-II (1-543) was 19 nM; in the assay on A7r5 cells, 110 nM; in the assay with N2a cells, 18 nM.

The values are drawn from US20110038835A1, “ANILIDES AND ANALOGS AS RHO KINASE INHIBITORS” (The Scripps Research Institute, priority 2007, published 2011).
